Data taken from patent US11426372B2, “Glycolic acid protects against ischemic insults” (priority 2015, dated 2022).
Entries after “also recorded” stand apart in the source; their conditions may differ.

Experiments:
[1] = estimated; cited from earlier work
mouse hearts = assay: Ischaemia-reperfusion in perfused hearts (Langendorff); conditions: 60 min global ischaemia, 60 min reperfusion with 5, 10, 20 or 40 mM glycolic acid
Description: Ischaemia-reperfusion in perfused hearts: Ischemia reperfusion in perfused hearts is performed. After sodium pentobarbital overdose (150 mg/kg i. p.), mouse hearts are quickly excised and perfused through the aorta in a Langendorff apparatus with a modified Krebs-Henseleit bicarbonate buffer (in mmol/l: 140 NaCl, 24 NaHCO3, 2.7 KCl, 0.4 KH2PO4, 1 MgSO4, 1.8 CaCl2 and 11 glucose, 95% O2-5% CO2 at 37° C.) at constant flow perfusion pressure of 80 mmHg. Left ventricular (LV) pressure is monitored with a water-filled latex balloon inserted into the LV and inflated to obtain an end-diastolic pressure (LVEDP) of 6-8 mmHg. LV developed pressure (LVdevP) is calculated as the difference between LV systolic pressure and LVEDP. After 30 minutes (min) of normoxic perfusion, mouse hearts are subjected to 60 min of normothermic global ischaemia followed by 60 min of reperfusion with vehicle or 5, 10, 20 or 40 mM glycolic acid. Lactate dehydrogenase (LDH) activity is spectrophotometrically measured in samples collected from the coronary effluent at different times throughout the perfusion period and was considered an indirect measure of necrosis. After 60 min of reperfusion, heart slices were incubated in […] to outline the area of necrosis. Hearts submitted to normoxic perfusion during 120 min served as time control series. […]

Rabbits = assay: Model of intestinal ischemia (mesenteric ligation); assay type: in vivo, rabbit; conditions: injected intraarterially upon removal of the ligation or systemically before ligation
Description: Rabbits are anesthetized with 3% barbital, 30-35 mg/intravenous injections. The small intestine is reflected to the left of the abdominal incision and then the SMA and SMV are identified. Mesenteric ischemia is confirmed when the mesenteric pulsation is lost and the intestine becomes pale. Ligation is maintained for 2, 4 and 6 hours. […] After removing the ligation, the animal is led free for 1 and 3 days and then is intracardially perfused. Intestinal samples are embedded in paraffin and sections are stained with a nuclear staining. Nuclear size distribution is analysed in different ischemic areas and compared to that of non-ischemic areas.

primary cortical neurons = assay: In vitro model of stroke: nuclear size (apoptotic nuclei) of cortical neurons 24 hours after ischemia; assay type: cell-based, mouse; conditions: for number of apoptotic neurons (nuclear size <30 μm2): vs non-treated neurons during ischemia
Description: (§1) In order to mimic neuronal ischemia in vitro, primary cortical neurons were culture in vitro for 6 days. After this time either a total ischemia or a partial ischemia were performed.
(§2) Total ischemia: on the day of ischemia medium was changed to PBS (pH=6.5) that had been previously bubbled with N2 to remove all O2. In the case of total ischemia, in order to ensure total lack of oxygen in the PBS, dithionite was added to the PBS to capture the remaining diluted O2. This process ensured the absence of both nutrients and O2 as it would be expected at the core of a stroke.
(§3) Penumbra: to mimic penumbra, normal medium was changed to a mixture of medium without antioxidants and PBS (50:50) and bubbled with N2 to remove diluted O2.
(§4) In both protocols neurons were then placed inside a gas chamber filled with N2 and left there for 45 minutes (ischemia) or 1 hour (penumbra). In order to mimic reperfusion, PBS or medium/PBS were then substituted with medium without antioxidants and left in the incubator overnight.
(§5) Normoxia: to mimic normoxia, normal medium was changed with normal medium without antioxidants and placed in the incubator under normal conditions for 45 minutes or 1 hour. Then medium was exchanged again with normal medium and left overnight in the incubator.
(§6) In all conditions neurons were fixed and stained with DRAQS (a nuclear marker) and NeuN (a neuronal marker) on the next day. Images were taking with an OPERA microscope and analysed with the help of FIJI Image analysis software. The more reliable outcome parameter to detect apoptosis was the surface of the nuclei in μm2 and the number of neurons alive after 24 hours. As it can be observed in FIGS. 1 and 2, the frequency distribution of nuclear sizes dramatically changed between normoxia and ischemia without treatment.

cardiomyocytes = assay: Ischaemia-reperfusion in isolated cardiomyocytes; assay type: cell-based, mouse; conditions: simulated ischaemia-reperfusion
Description: Ischaemia-reperfusion in isolated cardiomyocytes: Freshly isolated cardiomyocytes are obtained from mouse hearts by retrograde collagenase perfusion. Rhod-shaped calcium tolerant cardiomyocytes are selected by differential centrifugation and albumin gradient and are plated on laminin-coated glass bottom coverslips (for confocal studies) or on 4% fetal calf serum pretreated multiwell dishes. To simulate IR in cardiomyocytes, two independent approaches are used: anoxic workstation under controlled atmosphere of 0% 02-5% H2 at 37° C. (Invivo2 Workstation Ruskinn, Bridgend, UK) and microscope-adapted microperfusion chamber (RC-43C/BS4 64-0371 Harvard Apparatus, Holliston, Mass., USA). For the anoxic workstation, cardiomyocytes are plated in 96-wells dishes, placed within the anoxic atmosphere and incubated for 15 min with glucose-free acidic ischaemic buffer (previously deoxygenated in an autoclave and bubbled with N2 for 20 min) containing (in mmol/l): 140 NaCl, 3.6 KCl, 1.2 MgSO4, 1 CaCl2, 20 HEPES, pH 6.4, and supplemented with 4 μmol/l resazurin, 100 μmol/l ascorbic acid, 0.5 mmol/l dithionite and 100 U/ml superoxide dismutase. For reperfusion, ischaemic buffer is washed out and oxygenated, glucose-containing control buffer (pH 7.4) is added for 10 min. […]

mouse cortical neurons [2] = assay: In vitro model of stroke: LDH released to the media (PIERCE LDH cytotoxicity assay); assay type: cell-based; conditions: for concentration of LDH in the media 24 hours after the ischemic insult: 45 minutes ischemic insult, vs ischemic non-treated neurons, p<0.05
Description: as §1, §2, §3, §4, §5
Additionally, the amount of LDH released to the media was determined. LDH is released to the media during necrosis (immediate cell death after an insult, 0-6 hours after insult) and in the late stages of apoptosis in vitro (6 to 24 hours after insult) through the disruption of the plasmatic membrane. For this we used the PIERCE LDH CYTOTOXICITY ASSAY from Life Technologies.

Mice [3] = assay: In vivo model of limb ischemia (unilateral femoral ligatures); set-up: species or system mouse; conditions: injected systemically when ligatures are removed or before ligation
Description: In vivo model of limb ischemia: Mice are submitted to unilateral femoral ligatures for a few hours (4-5) to a few days. Glycolic acid or vehicle are injected systemically when the ligatures are removed. Alternatively, glycolic acid is given before ligation systemically. Ischemia is confirmed by clinical scores (tissue and functional damages by gait analysis) and methoxyisobutylisonitrile (MIBI) scintigraphies at different days 0, 4, 6, 10, 20, and 30. Histological analysis is also performed to determine the extension of the ischemia.

Mice [4] = assay: Transient filament MCA occlusion model (fMCAo) with infarct volumetry; assay type: in vivo, mouse
From the text: Transient filament MCA occlusion model (fMCAo): Mice are anaesthetized with isoflurane delivered in a mixture of 30% O2 and 70% N2O. An incision is made between the ear and the eye in order to expose the temporal bone. A laser Doppler probe is affixed to the skull above the MCA territory, and mice are placed in the supine position. An incision is made in the midline neck region, and the common carotid artery and left external carotid artery are isolated and ligated; a 2-mm silicon-coated filament (Doccol, #701912PKRe) is inserted into the internal carotid artery, and MCA occlusion is confirmed by a corresponding decrease in blood flow (i.e., a decrease in the laser Doppler flow signal). After 60 minutes of occlusion the filament is removed and either the vehicle, or 5, 10, 20 or 40 mM of GA (concentration for the total expected infact area) is injected. […]
Infarct volumetry: Brains are removed 24 and 72 hours after stroke induction and frozen on powdered dry ice. […] Infarct area is measured in each section using ImageJ software (NIH). In the fMCAo model, an edema correction for infarct volume is calculated using the following formula: (Ischemic area)=(Direct lesion volume)−[(Ipsilateral hemisphere)−(Contralateral hemisphere)] was performed. The total infarct volume is calculated by integrating the measured areas and intervals between the sections.

mouse cortical neurons [5] = assay: In vitro model of stroke: number of cortical neurons alive / survival rate 24 hours after ischemia; assay type: cell-based; conditions: for survival rate of mouse cortical neurons 24 hours after ischemic insult: 45 minutes ischemic insult, P<0.05; for number of cortical neurons alive / survival rate 24 hours after ischemia: penumbra like conditions, 60 minutes ischemic insult, P<0.001
Description: as §1, §2, §3, §4, §5, §6

## OCCOCCO [diethylene glycol]
[1]
  minimum toxic dose: 0.14 mg glycolic acid per kg of body weight

## O=C(O)CO [glycolic acid, 2-hydroxyethanoic acid]
Mouse hearts
  necrosis (LDH activity, area of necrosis): reduced necrosis compared to controls
Rabbits
  number of apoptotic nuclei and ischemic areas: reduce the number of apoptotic nuclei and the ischemic areas
Primary cortical neurons; 5 mM pretreatment or 10 and 20 mM during reperfusion, vs control neurons that underwent ischemia without treatment
  more normal size nuclei (nuclear surface >30 μm2) 24 hours after ischemia: up to 65%
Primary cortical neurons; 10 mM during reperfusion, p<0.01
  number of apoptotic neurons (nuclear size <30 μm2): reduces the number of apoptotic neurons
Primary cortical neurons; 10 mM glycolic acid during reperfusion
  shift of the nuclear size to smaller apoptotic nuclei induced by ischemia: partially reversed
Primary cortical neurons; 20 mM during reperfusion, p<0.01
  number of apoptotic neurons (nuclear size <30 μm2): reduces the number of apoptotic neurons
Primary cortical neurons; 20 mM glycolic acid during reperfusion
  shift of the nuclear size to smaller apoptotic nuclei induced by ischemia: partially reversed
Primary cortical neurons; 4 days pretreatment with 5 mM glycolic acid
  shift of the nuclear size to smaller apoptotic nuclei induced by ischemia: partially reversed
Primary cortical neurons; penumbra conditions
  protective effect (rescue): 100%
Primary cortical neurons; pre-treatment with 5 mM, p<0.05
  number of apoptotic neurons (nuclear size <30 μm2): reduces the number of apoptotic neurons
Primary cortical neurons; pretreatment with 2.5 mM glycolic acid
  shift of the nuclear size to smaller apoptotic nuclei induced by ischemia: partially reversed
cardiomyocytes
  number of cardiomyocytes alive 24 hours after ischemia: increased number of cardiomyocytes alive
Mouse cortical neurons [2]; 2.5 mM during reperfusion
  concentration of LDH in the media 24 hours after the ischemic insult: decrease the concentration of LDH significantly; also recorded: reduces apoptosis
Mouse cortical neurons [2]; 5 mM during reperfusion
  concentration of LDH in the media 24 hours after the ischemic insult: decrease the concentration of LDH significantly; also recorded: reduces apoptosis
Mouse cortical neurons [2]; concentrations lower than 5 mM given during reperfusion
  concentration of LDH in the media: decreased the concentration of LDH in the media
Mouse cortical neurons [2]; normoxic conditions, 2.5 and 5 mM
  effect on LDH levels in normoxia: did not observe any difference between treatments; also recorded: cannot be observed
Mice [3]
  extension of the ischemia and cell death: reduce the extension of the ischemia and cell death
Mice [4]; 5, 10, 20 or 40 mM GA injected after 60 minutes of occlusion
  decrease in blood flow: less severe decrease in blood flow
Mice [4]; brains removed 24 and 72 hours after stroke induction
  infarct volume: reduce the infarct volume size
Mouse cortical neurons [5]; 2.5 mM during reperfusion
  survival rate of mouse cortical neurons 24 hours after ischemic insult: increases the survival rate
Mouse cortical neurons [5]; 5 mM during reperfusion
  survival rate of mouse cortical neurons 24 hours after ischemic insult: increases the survival rate
Mouse cortical neurons [5]; 5 mM during reperfusion, listed as GA
  survival rate of mouse cortical neurons 24 hours after ischemic insult: enough to rescue the effect of the ischemia
Mouse cortical neurons [5]; 10 mM during reperfusion
  number of cortical neurons alive / survival rate 24 hours after ischemia: increased cortical neurons survival; also recorded: increases the survival rate
Mouse cortical neurons [5]; 20 mM during reperfusion
  number of cortical neurons alive / survival rate 24 hours after ischemia: increases the survival rate
Mouse cortical neurons [5]; concentrations lower than 5 mM given during reperfusion (data not shown)
  survival of mouse cortical neurons: did not increase survival
Mouse cortical neurons [5]; mouse cortical neurons, vs non-treated neurons undergoing ischemia, applied before ischemia or during reperfusion
  neuronal cell death / protection against ischemia, 24 hours after ischemia: protects neurons from ischemia; also recorded: significantly decreases neuronal cell death; also recorded: protects against different degrees of ischemia both when applied before or after the acute ischemic insult
Mouse cortical neurons [5]; pretreatment with 2.5 mM
  protection of neurons in normoxia conditions: protects neurons against the adverse conditions inherent to an in vitro setting
Mouse cortical neurons [5]; pretreatment with 5 mM
  protection of neurons in normoxia conditions: protects neurons against the adverse conditions inherent to an in vitro setting
